From patent US20240262934A1, “STARCH-INDOLE-ACID DERIVATIVE, PREPARATION METHOD THEREFOR, AND USE THEREOF” (SHANDONG SHANWEI IMMUNOTECH CO., LTD., priority 2021, published 2024)
Where two headings read alike, the source gives them in different places.

What was measured:
[1] = Concentration of IAA/IPA in colonic contents for different modes of administration; details: for concentration of IAA in feces (colonic contents, FIG. 8), improvement compared with the control group: 0.068 mmol IAANa
Procedure: (§1) A high performance liquid chromatography-tandem mass spectrometry (HPLC-MS/MS) technique was used to detect the content of metabolites IAA/IPA in each sample separately. Determination of the content of IAA/IPA in mouse feces: methanol was added into the collected feces, then vortexing, ultrasound extraction, and centrifuging were performed, a supernatant was taken to obtain an extract, the obtained extract was treated, IAA/IPA internal standards (IAA-d5/IPA-d2) were added for calibration, then purification was performed by using a small HLB solid-phase extraction column (pretreated with 5 mL of methanol and 5 mL water, then rinsed with 5 mL of a methanol/water mixed solution and 5 mL of water, an effluent being discarded, and finally eluted with 5 mL of methanol before use), and an eluate was analyzed by HPLC-MS/MS to detect IAA/IPA. Determination of the content of IAA/IPA in the hepatic portal blood and the peripheral blood: whole blood collected was allowed to stand and centrifuged at low temperature, and a supernatant was taken to obtain serum, and then an internal standard was added into the serum, purification was performed by using a solid-phase extraction column, and metabolites IAA/IPA in an eluate were detected by HPLC-MS/MS by the same method as described above. Determination of the content of IAA/IPA in the colon tissues: methanol was added into colon tissues collected, ultrasonically disrupted and further uniformly ground, then vortexing, ultrasound extraction, and centrifuging were performed, a supernatant was taken to obtain an extract, and then an internal standard was added into serum, purification was performed by using a solid-phase extraction column, and the concentration of IAA/IPA in the extract was detected by HPLC-MS/MS by the same method as described above.
(§2) The experiments were divided into 5 groups in total: • 1. Blank control group; • 2. […] IAANa-containing water drinking group (with the IAANa concentration of 2.68 mg/mL, average daily drinking of 5 mL of water per mouse, and a total intake of 0.068 mmol IAANa); • 4. Gavage group (with the IAANa concentration of 67 mg/mL, daily gavage of 0.2 mL, and a total intake of 0.068 mmol IAANa); and • 5. Intraperitoneal injection group (with the IAANa concentration of 67 mg/mL, daily injection of 0.2 mL, and a total intake of 0.068 mmol IAANa).

[2] = Concentration of IAA in hepatic portal blood serum for different modes of administration; assay type: in vivo, mice
Excerpt: Blank control group; • 2.

[3] = Concentration of IPA in feces of mice fed HAMSIPA feed; assay type: in vivo; details: 15% and 1.5% in feed, one week
Procedure: Indole acid derivatized starches with different degrees of substitution were added to a mouse feed in a ratio of 15% and 1.5%, respectively, and feces were taken to test the IPA content after mice were fed with a special feed prepared for one week.

[4] = system: dextran sulfate sodium (DSS)-induced acute ulcerative colitis; experiment: DSS-induced acute ulcerative colitis in mice: body weight, colon length, DAI, colon status, tissue sections; assay type: in vivo; details: tested as 15% HAMSIAA-0.49 in feed
Procedure: After the end of the experiment, a disease active index (DAI) of mice was evaluated, mouse colons were taken to measure their lengths, and a colon status of the mice was evaluated by sectioning, and the levels of cytokines IL-10, IL-6, IL-22, etc. in colon tissues of the mice were detected. The effect of […] on the prevention and treatment of DSS-induced acute ulcerative colitis in mice was finally evaluated by these indicators.

[5] = system: ANA, Anti-dsDNA lgG2a, and Anti-Smith immune antibodies; experiment: Serum immune antibodies in SLE mice by ELISA; assay type: in vivo; details: MRL/lpr mice; 1.5% HAMSIAA-0.32; after one month of treatment and after the experiment
Excerpt: After one month of treatment with HAMSIAA, blood serum samples from each group for mice were collected once. After the experiment, blood serum samples from each group of mice were collected again. The expression levels of ANA, Anti-dsDNA lgG2a, and Anti-Smith immune antibodies in the blood serum were detected by ELISA technique.

[6] = mouse, in vivo
Procedure: as §1, §2

[7] = system: TNF-α, IFN-γ, IL-4, IFN-α, IL-6 and IL-22; experiment: Serum cytokine content in SLE mice; assay type: in vivo; details: MRL/lpr mice; 1.5% HAMSIAA-0.32; after the experiment
[8] = system: B cells and CD4+CXCR5+ Tfh in the spleen of MRL/lpr mice; experiment: B cells, Tfh cells and BAFF in spleens of SLE mice; assay type: in vivo; details: 1.5% HAMSIAA-0.32, after the experiment
Procedure: After the experiment, the expression levels of CD3^− B220^+ B cells, B220^+IgM^+ B cells, B220^+CD138^+ B cells, and B220^+IgD^+ B cells in the spleen for mice in each group in this embodiment were tested. […] Wherein,
After the experiment, the expression levels of CD4^+CXCR5^+ Tfh in the spleens for mice in each group and BAFF in mice in each group in this Example were tested.

[9] = system: cytokines IL-10, IL-6, IL-1, IL-22 in mouse colon tissue; experiment: Cytokine levels in colon tissue of DSS colitis mice; assay type: in vivo; details: 1.5% HAMSIAA-0.32 in feed, vs model group
Procedure: After the end of the experiment, a disease active index (DAI) of mice was evaluated, mouse colons were taken to measure their lengths, and a colon status of the mice was evaluated by sectioning, and the levels of cytokines IL-10, IL-6, IL-22, etc. in colon tissues of the mice were detected.

[10] = system: Systemic lupus erythematosus model (MRL/lpr); experiment: Systemic lupus erythematosus model mice: kidney pathology, skin damage, spleen and lymph nodes; assay type: in vivo; details: 1.5% HAMSIAA-0.32 in feed, 14 weeks
Procedure: • 1. Mouse food was prepared from the prepared […] in a certain addition ratio, and SLE model mice and control mice were purchased from Changzhou Cavens Experimental Animal Co., Ltd, aged 4-6 weeks. All mice were randomly divided into 4 groups: • Control group (MRL/MPJ); • Systemic lupus erythematosus model group (MRL/lpr); • Prednisone group (MRL/lpr+Prednisone); and • […] group ([…]). The […] group was given a special feed in which […] was added in a certain proportion for 14 weeks. Kidney tissues were collected after the end of the experiment. • 2. […] After the experiment, the spleens, cervical lymph nodes, and perirenal lymph nodes of each group for mice in this embodiment were collected.

[11] = IAANa-containing drinking water

O=C([O-])Cc1c[nH]c2ccccc12.[Na+] [IAANa]
concentration of IPA in the colonic contents compared with the control group [1, 11]: not significantly changed
concentration of IAA in feces (colonic contents, FIG. 8), improvement compared with the control group ([1]; IAANa-containing drinking water, 2.68 mg/mL): about 30 times
concentration of IPA in the colonic contents compared with the control group ([1]; gavage): not significantly changed
concentration of IAA in feces (colonic contents, FIG. 8), improvement compared with the control group ([1]; gavage, 67 mg/mL, 0.2 mL daily): about 7 times
concentration of IPA in the colonic contents compared with the control group ([1]; intraperitoneal injection): not significantly changed
concentration of IAA in feces (colonic contents, FIG. 8), improvement compared with the control group ([1]; intraperitoneal injection, 67 mg/mL, 0.2 mL daily): about 7 times
concentration of IAA in the hepatic portal blood compared with the control group [2, 11]: significant increase
concentration of IAA in the hepatic portal blood compared with the control group ([2]; gavage): significant increase
concentration of IAA in the hepatic portal blood compared with the control group ([2]; intraperitoneal injection): significant increase

Indolepropionic Acid Derivatized High-Amylose Maize Starch [HAMSIPA]
concentration of IPA in the feces compared with the HAMS group [3]: significantly increased

indoleacetic acid derivatized high-amylose maize starch [HAMSIAA]
severity of DSS-induced ulcerative colitis [4]: effectively alleviate
expression level of ANA in blood serum [5]: significantly reduce
expression level of Anti-Smith in blood serum [5]: significantly reduce
expression level of Anti-dsDNA lgG2a in blood serum [5]: significantly reduce
concentration of IPA in the colonic contents compared with the control group [6]: significantly increased
IFN-α expression level in blood serum [7]: significantly reduce
IFN-γ expression level in blood serum [7]: significantly reduce
IL-4 expression level in blood serum [7]: significantly reduce
IL-6 expression level in blood serum [7]: significantly reduce
TNF-α expression level in blood serum [7]: significantly reduce
expression level of the anti-inflammatory cytokine IL-22 in blood serum [7]: promotes
expression level (concentration) of BAFF [8]: inhibit
expression level of CD4+CXCR5+ Tfh in the spleen [8]: inhibit
proliferation and differentiation of B cells in the spleen (CD3− B220+ B cells) [8]: inhibit
proportion of B220+CD138+ B cells (plasma cells) in the spleen [8]: reduce
proportion of B220+IgD+ B cells in the spleen [8]: increase
proportion of B220+IgM+ B cells in the spleen [8]: increase
level of anti-inflammatory cytokine IL-10 in the colon tissue ([9]; FIG. 17): significantly increased
level of pro-inflammatory cytokine IL-6 in the colon tissue ([9]; FIG. 18): significantly reduced
level of pro-inflammatory cytokine in the colon tissue ([9]; FIG. 19): significantly reduced
content of IL-22 in the colon tissue ([9]; FIG. 21): significantly increased
HE staining of kidney tissues (glomerular volume, cellular proliferation, inflammatory cell infiltration) [10]: alleviated
Renal interstitial scores (renal interstitial nephritis) [10]: significantly attenuates
cervical lymph node weight (lymph nodes enlargement) [10]: significantly reduce
glomerular scores (glomerular injury) [10]: significantly attenuates
glomerulonephritis and interstitial nephritis / symptoms in SLE mice compared with the SLE mouse model group [10]: effectively alleviate
perirenal lymph node weight (lymph nodes enlargement) [10]: significantly reduce
scores of the degree of skin damage [10]: significantly reduces
